Assay results as given in patent US6479435B1, “Diaryl ethers and processes for their preparation and herbicidal and desiccant compositions containing them” (ISK Americas Incorporated, priority 1997, dated 2002).

Key:
Assay type in all cases: in vivo
[1] = test system: ivyleaf morningglory (Ipomoea hederacea, IPOHE); assay: Pre-emerge greenhouse herbicide test, phytotoxicity rating; settings: 14 days after application, rating scale 0-100
Procedure, shortened: (§1)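 Seeds sown in sandy loam mix one day before track-sprayer application of compounds in acetone at 125–1000 g ai/ha (187 l/ha), then surface-watered to incorporate and bottom-watered. Visual rating 14 days after application on a 0–100 scale (0 = no damage, 100 = all plants dead).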

[2] = test system: sicklepod (Cassia obtusifolia, CASOB); assay: as above; settings: 14 days after application, rating scale 0-100
Procedure, shortened: as §1

[3] = test system: redroot pigweed (Amaranthus retroflexus, AMARE); assay: as above; settings: 14 days after application, rating scale 0-100
Procedure, shortened: as §1

[4] = test system: Johnsongrass (Sorghum halepense, SORHA); assay: as above; settings: 14 days after application, rating scale 0-100
Procedure, shortened: as §1

[5] = test system: barnyardgrass (Echinochloa crusgalli, ECHCG); assay: as above; settings: 14 days after application, rating scale 0-100
Procedure, shortened: as §1

[6] = test system: large crabgrass (Digitaria sanguinalis, DIGSA); assay: as above; settings: 14 days after application, rating scale 0-100
Procedure, shortened: as §1

[7] = test system: lambsquarters (Chenopodium album, CHEAL); assay: as above; settings: 14 days after application, rating scale 0-100
Procedure, shortened: as §1

[8] = test system: green foxtail (Setaria viridis, SETVI); assay: as above; settings: 14 days after application, rating scale 0-100
Procedure, shortened: as §1

[9] = test system: common ragweed (Ambrosia artemisiifolia L., AMBEL); assay: as above; settings: 14 days after application, rating scale 0-100
Procedure, shortened: as §1

[10] = test system: velvetleaf (Abutilon theophrasti, ABUTH); assay: as above; settings: 14 days after application, rating scale 0-100
Procedure, shortened: as §1

[11] = test system: upland rice (Oryza sp., var.Tebonnet, RICE); assay: Post-emerge greenhouse test, crop damage rating; settings: 14 days after application
Procedure, shortened: (§2)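 Compounds in acetone with 0.25% v/v non-ionic surfactant were track-sprayed at 187 l/ha over plants at the 2-3 leaf stage, at 63 to 1000 g ai/ha. Pots were bottom-watered. Injury was scored visually 14 days later on a 0-100 scale, where 0 is no damage and 100 is complete plant death.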

[12] = test system: field corn (Zea mays L., var. Dekalb 535, CORN); assay: Post-emerge greenhouse test, crop damage rating; settings: 14 days after application
Procedure, shortened: as §2

[13] = test system: upland rice (Oryza sp., var.Tebonnet, RICE); assay: Pre-emerge greenhouse test, crop damage rating; settings: 14 days after application, rating scale 0-100
Procedure, shortened: as §1

[14] = test system: field corn (Zea mays L., var. Dekalb 535, CORN); assay: Pre-emerge greenhouse test, crop damage rating; settings: 14 days after application, rating scale 0-100
Procedure, shortened: as §1

[15] = test system: soybean (Glycine max L., var. Pella 86, SOY); assay: Pre-emerge greenhouse test, crop damage rating; settings: 14 days after application, rating scale 0-100
Procedure, shortened: as §1

[16] = test system: common ragweed (Ambrosia artemisiifolia L., AMBEL); assay: Post-emerge greenhouse herbicide test, phytotoxicity rating; settings: 14 days after application
Procedure, shortened: as §2

[17] = test system: soybean (Glycine max L., var. Pella 86, SOY); assay: Post-emerge greenhouse test, crop damage rating; settings: 14 days after application
Procedure, shortened: as §2

[18] = test system: ivyleaf morningglory (Ipomoea hederacea, IPOHE); assay: Post-emerge greenhouse herbicide test, phytotoxicity rating; settings: 14 days after application
Procedure, shortened: as §2

[19] = test system: sicklepod (Cassia obtusifolia, CASOB); assay: as above; settings: 14 days after application
Procedure, shortened: as §2

[20] = test system: redroot pigweed (Amaranthus retroflexus, AMARE); assay: as above; settings: 14 days after application
Procedure, shortened: as §2

[21] = test system: Johnsongrass (Sorghum halepense, SORHA); assay: as above; settings: 14 days after application
Procedure, shortened: as §2

[22] = test system: barnyardgrass (Echinochloa crusgalli, ECHCG); assay: as above; settings: 14 days after application
Procedure, shortened: as §2

[23] = test system: large crabgrass (Digitaria sanguinalis, DIGSA); assay: as above; settings: 14 days after application
Procedure, shortened: as §2

[24] = test system: lambsquarters (Chenopodium album, CHEAL); assay: as above; settings: 14 days after application
Procedure, shortened: as §2

[25] = test system: green foxtail (Setaria viridis, SETVI); assay: as above; settings: 14 days after application
Procedure, shortened: as §2

[26] = test system: velvetleaf (Abutilon theophrasti, ABUTH); assay: as above; settings: 14 days after application
Procedure, shortened: as §2

## O=c1n(-c2cc(Oc3ccc([N+](=O)[O-])cc3)c(Cl)cc2F)c(=S)n2n1CCCC2 [Compound 8-8]
[1]; 125 g ai/ha
  phytotoxicity rating IPOHE: 0
[1]; 500 g ai/ha
  phytotoxicity rating IPOHE: 10
[2]; 125 g ai/ha
  phytotoxicity rating CASOB: 0
[2]; 500 g ai/ha
  phytotoxicity rating CASOB: 80
[3]; 125 g ai/ha
  phytotoxicity rating AMARE: 100
[3]; 500 g ai/ha
  phytotoxicity rating AMARE: 100
[4]; 125 g ai/ha
  phytotoxicity rating SORHA: 30
[4]; 500 g ai/ha
  phytotoxicity rating SORHA: 30
[5]; 125 g ai/ha
  phytotoxicity rating ECHCG: 0
[5]; 500 g ai/ha
  phytotoxicity rating ECHCG: 20
[6]; 125 g ai/ha
  phytotoxicity rating DIGSA: 40
[6]; 500 g ai/ha
  phytotoxicity rating DIGSA: 40
[7]; 125 g ai/ha
  phytotoxicity rating CHEAL: 0
[7]; 500 g ai/ha
  phytotoxicity rating CHEAL: 10
[8]; 125 g ai/ha
  phytotoxicity rating SETVI: 60
[8]; 500 g ai/ha
  phytotoxicity rating SETVI: 95
[9]; 125 g ai/ha
  phytotoxicity rating AMBEL: 0
[9]; 500 g ai/ha
  phytotoxicity rating AMBEL: 20
[10]; 125 g ai/ha
  phytotoxicity rating ABUTH: 90
[10]; 500 g ai/ha
  phytotoxicity rating ABUTH: 100
[11]; 63 g al/ha
  RICE crop damage rating (0-100): 0
[11]; 500 g al/ha
  RICE crop damage rating (0-100): 10
[12]; 63 g al/ha
  CORN crop damage rating (0-100): 10
[12]; 500 g al/ha
  CORN crop damage rating (0-100): 10
[13]; 125 g ai/ha
  crop damage rating RICE: 0
[13]; 500 g ai/ha
  crop damage rating RICE: 0
[14]; 125 g ai/ha
  crop damage rating CORN: 5
[14]; 500 g ai/ha
  crop damage rating CORN: 0
[15]; 125 g ai/ha
  crop damage rating SOY: 0
[15]; 500 g ai/ha
  crop damage rating SOY: 20
[16]; 63 g al/ha
  AMBEL phytotoxicity rating (0-100): 30
[16]; 500 g al/ha
  AMBEL phytotoxicity rating (0-100): 40
[17]; 63 g al/ha
  SOY crop damage rating (0-100): 25
[17]; 500 g al/ha
  SOY crop damage rating (0-100): 75
[18]; 63 g al/ha
  IPOHE phytotoxicity rating (0-100): 90
[18]; 500 g al/ha
  IPOHE phytotoxicity rating (0-100): 50
[19]; 63 g al/ha
  CASOB phytotoxicity rating (0-100): 40
[19]; 500 g al/ha
  CASOB phytotoxicity rating (0-100): 40
[20]; 63 g al/ha
  AMARE phytotoxicity rating (0-100): 95
[20]; 500 g al/ha
  AMARE phytotoxicity rating (0-100): 100
[21]; 63 g al/ha
  SORHA phytotoxicity rating (0-100): 10
[21]; 500 g al/ha
  SORHA phytotoxicity rating (0-100): 0
[22]; 63 g al/ha
  ECHCG phytotoxicity rating (0-100): 10
[22]; 500 g al/ha
  ECHCG phytotoxicity rating (0-100): 0
[23]; 63 g al/ha
  DIGSA phytotoxicity rating (0-100): 0
[23]; 500 g al/ha
  DIGSA phytotoxicity rating (0-100): 0
[24]; 63 g al/ha
  CHEAL phytotoxicity rating (0-100): 99
[24]; 500 g al/ha
  CHEAL phytotoxicity rating (0-100): 100
[25]; 63 g al/ha
  SETVI phytotoxicity rating (0-100): 20
[25]; 500 g al/ha
  SETVI phytotoxicity rating (0-100): 30
[26]; 63 g al/ha
  ABUTH phytotoxicity rating (0-100): 95
[26]; 500 g al/ha
  ABUTH phytotoxicity rating (0-100): 100
